Literature values in EP1707213A1, “Herbal composition for the treatment of cutaneous Erythema” (Kern, Elisabeth, priority 2005, dated 2006).
Read-outs that look alike come from different tables or passages of the source. Each block holds one molecule with its values, some of them ahead of it.

Key:
[1] = system: durch Doxil induziertes Hand-Fuß-Syndrom; settings: patients with hand-foot syndrome of Grade 2 bis 4 under Doxil

SMILES: O=c1[nH]cc(F)c(=O)[nH]1 [Zusammensetzung 5-FU, 5-Fluorouracil]
palmoplantare Erythrodysästhesie als häufigste Nebenwirkung (Patienten; use as cytostatic): 50 % der Patienten

SMILES: C[C@@H]1C[C@H]2[C@@H]3CCC4=CC(=O)C=C[C@]4(C)[C@@]3(F)[C@@H](O)C[C@]2(C)[C@@]1(O)C(=O)CO [Dexamethason]
Fortführung der Chemotherapie mit der ursprünglichen Dosierung von Doxil [1]: möglich

palmoplantare Erythrodysästhesie als häufigste Nebenwirkung (Patienten; in vivo): 50 % der Patienten
SMILES: CCCCCOC(=O)Nc1nc(=O)n([C@@H]2O[C@H](C)[C@@H](O)[C@H]2O)cc1F [Capecitabin, N4-Pentyloxycarbonyl-5'desoxy-Fluorocytidin]
